Key:
[1] = biological target: T1, Dihydrofolate reductase (Escherichia coli) (UniProt P0ABQ4)
T1 sequence (whole entry): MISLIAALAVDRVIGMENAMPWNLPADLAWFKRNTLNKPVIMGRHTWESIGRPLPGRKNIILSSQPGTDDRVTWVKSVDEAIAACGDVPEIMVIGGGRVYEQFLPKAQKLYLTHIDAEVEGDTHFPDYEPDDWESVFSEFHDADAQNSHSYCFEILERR
Description: Constant, Kr at Phe-31 of dihydrofolate reductase (DHFR)

[2] = biological target: T2, Dihydrofolate reductase (Escherichia coli, UniProt P0ABQ4); assay: Inhibition constant for Val31-dihydrofolate reductase (DHFR)-NADPH-Compound complex
[3] = biological target: T2, Dihydrofolate reductase; assay: Thermodynamic Dissociation Constant for compound-Tyr31-dihydrofolate reductase (DHFR) complex at pH 6
[4] = biological target: T3, Dihydrofolate reductase (Escherichia coli, UniProt P0ABQ4); assay: Inhibition constant for Phe31-dihydrofolate reductase (DHFR)-NADPH-Compound complex
T3 sequence (P0ABQ4 whole entry): T1 sequence (whole entry)

[5] = biological target: T1, Dihydrofolate reductase (Escherichia coli); remark: listed apart in the source
Description: Constant at Tyr-31(Kr) of dihydrofolate reductase (DHFR)

[6] = biological target: T2, Dihydrofolate reductase; assay: Inhibition constant for Tyr31-dihydrofolate reductase (DHFR)-NADPH-Compound complex
[7] = biological target: T1, Dihydrofolate reductase (Escherichia coli); remark: listed apart in the source
Description: Dissociation constant(Koff) at Phe-31 of dihydrofolate reductase (DHFR)

[8] = biological target: T1, Dihydrofolate reductase (Escherichia coli); remark: listed apart in the source
Description: Dissociation constant at(Koff) Tyr-31 of dihydrofolate reductase (DHFR)

[9] = biological target: T1, Dihydrofolate reductase (Escherichia coli); remark: listed apart in the source
Description: Association constant(Kon) at Tyr-31 of dihydrofolate reductase (DHFR)

[10] = biological target: T2, Dihydrofolate reductase; assay: Thermodynamic Dissociation Constant for compound-Phe31-dihydrofolate reductase (DHFR) complex at pH 6
[11] = biological target: T2, Dihydrofolate reductase; assay: Thermodynamic Dissociation Constant for compound-Val31-dihydrofolate reductase (DHFR) complex at pH 7
[12] = biological target: T2, Dihydrofolate reductase; assay: Thermodynamic Dissociation Constant for compound-Tyr31-dihydrofolate reductase (DHFR) complex at pH 7
[13] = biological target: T2, Dihydrofolate reductase; assay: Thermodynamic Dissociation Constant for compound-Phe31-dihydrofolate reductase (DHFR) complex at pH 7
[14] = biological target: T2, Dihydrofolate reductase; assay: Thermodynamic Dissociation Constant for compound-Val31-dihydrofolate reductase (DHFR) complex at pH 8.5
[15] = biological target: T2, Dihydrofolate reductase; assay: Thermodynamic Dissociation Constant for compound-Phe31-dihydrofolate reductase (DHFR) complex at pH 8.5
[16] = biological target: T2, Dihydrofolate reductase; assay: Thermodynamic Dissociation Constant for compound-Tyr31-dihydrofolate reductase (DHFR) complex at pH 8.5

| SMILES | Kr [1] | Ki [2] | Kd [3] | Ki [4] | Kr [5] | Ki [6] | k off [7] | k off [8] | k on [9] | Kd [10] | Kd [11] | Kd [12] | Kd [13] | Kd [14] | Kd [15] | Kd [16] |
| --- | --- | --- | --- | --- | --- | --- | --- | --- | --- | --- | --- | --- | --- | --- | --- | --- |
| Cc1nc2nc(N)nc(N)c2nc1C | 24 s⁻¹ | 9.1 µM | 3.9 µM | 0.044 µM | 25 s⁻¹ | 0.057 µM | 35 s⁻¹ | 25 s⁻¹ | 6.8e+06 M⁻¹ s⁻¹ | 1.6 µM | – | – | – | – | – | – |
| Nc1nc2ncc(CNc3ccc(C(=O)N[C@@H](CCC(=O)O)C(=O)O)cc3)nc2c(=O)[nH]1 [FOLIC ACID] | – | – | – | – | – | – | – | – | – | – | 4.8 µM | 4.4 µM | 0.81 µM | – | – | – |
| NC(=O)c1ccc[n+]([C@H]2O[C@@H](COP(=O)([O-])OP(=O)(O)OC[C@H]3O[C@@H](n4cnc5c(N)ncnc54)[C@H](OP(=O)(O)O)[C@@H]3O)[C@H](O)[C@@H]2O)c1 [NICOTINAMIDE ADENINE DINUCLEOTIDE PHOSPHATE] | – | – | – | – | – | – | – | – | – | – | 0.22 µM | 0.34 µM | 0.38 µM | 0.3 µM | 0.49 µM | 0.4 µM |
